Test results reported in patent US10479780B2, “Aminopyrazole derivatives” (Chugai Seiyaku Kabushiki Kaisha, priority 2015, dated 2019).
Read-outs that look alike come from different tables or passages of the source.

Legend:
Format in all cases: biochemical
human Lck enzyme = target: T1, human Lck enzyme (Homo sapiens, UniProt P06239); assay: Lck enzyme inhibitory activity (time-resolved fluorometry, biotinylated peptide phosphorylation); settings: read-out: LCK_IC50
T1 construct: purchased Carna Biosciences, Inc. 08-170
Method in brief: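 Readout pairs a europium cryptate-labelled anti-phosphotyrosine antibody with XL665-streptavidin, measured by time-resolved fluorescence. IC50 derived from percent inhibition against untreated controls.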

human Src enzyme = target: T2, human Src enzyme (Homo sapiens, UniProt P12931); assay: Src enzyme inhibitory activity (time-resolved fluorometry, biotinylated peptide phosphorylation); settings: read-out: SRC_IC50
T2 construct: purchased Carna Biosciences, Inc. 08-173
Method in brief: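 Compounds were tested for blocking tyrosine phosphorylation of a biotinylated peptide substrate by recombinant human Src. Phosphorylated product was quantified by time-resolved fluorometry using europium cryptate and XL665 conjugates, and IC50 was calculated against the compound-free control.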

human Yes1 enzyme = target: T3, human Yes1 enzyme (Homo sapiens, UniProt P07947); assay: Yes1 enzyme inhibitory activity (time-resolved fluorometry, biotinylated peptide phosphorylation); settings: read-out: YES_IC50
T3 construct: made in house
Method in brief: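 Inhibition was expressed against a compound-free control to give IC50, using TR-FRET read-out (Eu-cryptate anti-pTyr antibody, streptavidin-XL665).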

[1] = biotinylated peptide phosphorylation

T3 sequence (P07947 whole entry): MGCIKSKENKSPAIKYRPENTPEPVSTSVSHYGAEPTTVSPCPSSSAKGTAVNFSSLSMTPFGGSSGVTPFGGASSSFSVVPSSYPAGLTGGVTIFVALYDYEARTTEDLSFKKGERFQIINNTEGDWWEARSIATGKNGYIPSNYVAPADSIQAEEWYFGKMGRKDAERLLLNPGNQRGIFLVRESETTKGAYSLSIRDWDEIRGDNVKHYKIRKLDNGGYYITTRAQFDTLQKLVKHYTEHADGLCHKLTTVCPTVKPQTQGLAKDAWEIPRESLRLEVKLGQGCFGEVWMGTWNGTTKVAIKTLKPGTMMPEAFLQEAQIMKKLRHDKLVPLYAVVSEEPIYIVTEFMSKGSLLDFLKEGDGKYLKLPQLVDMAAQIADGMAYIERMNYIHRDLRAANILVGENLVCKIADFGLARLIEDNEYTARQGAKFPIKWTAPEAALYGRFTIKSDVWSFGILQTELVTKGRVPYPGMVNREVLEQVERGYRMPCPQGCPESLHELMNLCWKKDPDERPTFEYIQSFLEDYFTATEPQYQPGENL
T1 sequence (P06239 whole entry): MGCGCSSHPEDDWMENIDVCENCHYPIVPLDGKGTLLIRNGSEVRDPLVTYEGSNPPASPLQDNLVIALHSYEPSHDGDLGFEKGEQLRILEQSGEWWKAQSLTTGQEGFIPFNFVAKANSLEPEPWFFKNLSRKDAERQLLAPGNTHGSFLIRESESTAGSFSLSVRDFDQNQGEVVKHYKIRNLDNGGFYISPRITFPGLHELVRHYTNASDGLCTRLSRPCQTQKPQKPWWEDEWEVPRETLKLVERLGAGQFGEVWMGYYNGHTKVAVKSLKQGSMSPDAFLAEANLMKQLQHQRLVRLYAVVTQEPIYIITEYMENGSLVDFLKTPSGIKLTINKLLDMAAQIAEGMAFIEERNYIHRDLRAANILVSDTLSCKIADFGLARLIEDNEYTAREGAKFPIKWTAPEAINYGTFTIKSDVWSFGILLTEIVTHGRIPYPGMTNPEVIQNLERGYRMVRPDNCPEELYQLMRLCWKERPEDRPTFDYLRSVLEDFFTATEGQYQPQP
T2 sequence (P12931 whole entry): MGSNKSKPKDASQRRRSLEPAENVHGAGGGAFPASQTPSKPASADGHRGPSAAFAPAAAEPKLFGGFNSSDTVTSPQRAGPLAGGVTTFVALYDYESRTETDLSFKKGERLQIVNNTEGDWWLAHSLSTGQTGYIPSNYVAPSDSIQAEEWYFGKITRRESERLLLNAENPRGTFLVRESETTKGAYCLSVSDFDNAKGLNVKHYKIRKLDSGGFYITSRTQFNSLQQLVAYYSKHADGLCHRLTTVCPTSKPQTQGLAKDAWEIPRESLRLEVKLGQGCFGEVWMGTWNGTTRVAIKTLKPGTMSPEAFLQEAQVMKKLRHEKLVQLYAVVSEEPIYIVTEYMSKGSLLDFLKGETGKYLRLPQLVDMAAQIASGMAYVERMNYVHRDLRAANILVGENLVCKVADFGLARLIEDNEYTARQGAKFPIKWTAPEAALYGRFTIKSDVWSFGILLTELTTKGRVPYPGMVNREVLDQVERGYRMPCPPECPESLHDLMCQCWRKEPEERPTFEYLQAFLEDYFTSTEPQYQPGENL

SMILES | IC50 (human Lck enzyme) [nM] | IC50 (human Src enzyme) [nM] | IC50 (human Yes1 enzyme) [nM] | IC50 (human Lck enzyme; [1]) [nM] | IC50 (human Src enzyme; [1]) [nM] | IC50 (human Yes1 enzyme; [1]) [nM]
Cc1cc(-n2ncc(C(=O)c3cc4cc(OC(F)F)c(N5CCC(N6CCOCC6)CC5)cc4[nH]3)c2N)ccc1Oc1ccccc1F [Example 5-1-181, [5-amino-1-[4-(2-fluorophenoxy)-3-methylphenyl]pyrazol-4-yl]-[5-(difluoromethoxy)-6-(4-morpholin-4-ylpiperidin-1-yl)-1H-indol-2-yl]methanone] | 41 | 390 | 1.4 |  |  | 
Cc1cc(Oc2c(F)cccc2F)ncc1-n1ncc(C(=O)c2cc3cc(F)c(N4C(=O)[C@@H]5C[C@@H](O)CN5C4=O)cc3[nH]2)c1N [Example 5-1-433, (6R,7aS)-2-[2-[5-amino-1-[6-(2,6-difluorophenoxy)-4-methylpyridin-3-yl]pyrazole-4-carbonyl]-5-fluoro-1H-indol-6-yl]-6-hydroxy-5,6,7,7a-tetrahydropyrrolo[1,2-c]imidazole-1,3-dione] |  |  |  | 4.8 | 59 | 1.2
Cc1cc(Oc2ccccc2F)ccc1-n1ncc(C(=O)c2cc3cc(OC(F)F)c(N4CCCS4(=O)=O)cc3[nH]2)c1N [Example 4-25-002, [5-amino-1-[4-(2-fluorophenoxy)-2-methylphenyl]pyrazol-4-yl]-[5-(difluoromethoxy)-6-(1,1-dioxo-1,2-thiazolidin-2-yl)-1H-indol-2-yl]methanone] |  |  |  | 15 | 37 | 3.1
Cc1cc2cc(C(=O)c3cnn(-c4ccc(Oc5ccccc5F)cc4C)c3N)[nH]c2cc1N1C(=O)[C@@H]2CCCN2C1=O [Example 5-1-458, (7aS)-2-[2-[5-amino-1-[4-(2-fluorophenoxy)-2-methylphenyl]pyrazole-4-carbonyl]-5-methyl-1H-indol-6-yl]-5,6,7,7a-tetrahydropyrrolo[1,2-c]imidazole-1,3-dione] |  |  |  | 4 | 16 | 0.73
Cc1cc(Oc2cccc(F)c2F)cc(F)c1-n1ncc(C(=O)c2cc3cc(F)c(N)cc3[nH]2)c1N [Example 4-3-001, {5-amino-1-[4-(2,3-difluorophenoxy)-2-fluoro-6-methylphenyl]pyrazol-4-yl}-(6-amino-5-fluoro-1H-indol-2-yl)methanone] |  |  |  | 24 | 92 | 4.3
Cc1cc(Oc2ccccc2F)ccc1-n1ncc(C(=O)c2cc3cc(F)c(NS(=O)(=O)CC(=O)N4CCCC4)cc3[nH]2)c1N [Example 4-26-001, N-(2-(5-amino-1-(4-(2-fluorophenoxy)-2-methylphenyl)-1H-pyrazole-4-carbonyl)-5-fluoro-1H-indol-6-yl)-2-oxo-2-(pyrrolidin-1-yl)ethanesulfonamide] |  |  |  | 7.6 | 26 | 1.5
Cc1cc(Oc2ccccc2F)ncc1-n1ncc(C(=O)c2cc3cc(F)c(NS(=O)(=O)c4cncc(Cl)c4)cc3[nH]2)c1N [Example 5-1-544, N-[2-[5-amino-1-[6-(2-fluorophenoxy)-4-methylpyridin-3-yl]pyrazole-4-carbonyl]-5-fluoro-1H-indol-6-yl]-5-chloropyridine-3-sulfonamide] |  |  |  | 330 | 680 | 8.4
Cc1cc(Oc2ccccc2F)ncc1-n1ncc(C(=O)c2cc3cc(OCC(F)F)c(N4C(=O)NC(C)(C)C4=O)cc3[nH]2)c1N [Example 5-1-377, 3-[2-[5-amino-1-[6-(2-fluorophenoxy)-4-methylpyridin-3-yl]pyrazole-4-carbonyl]-5-(2,2-difluoroethoxy)-1H-indol-6-yl]-5,5-dimethylimidazolidine-2,4-dione] | 7.4 | 17 | 2 |  |  | 
Cc1cc(Oc2c(F)cccc2F)ncc1-n1ncc(C(=O)c2cc3cc(OC(F)F)c(C4CCN(S(C)(=O)=O)CC4)cc3[nH]2)c1N [Example 4-17-012, [5-amino-1-[6-(2,6-difluorophenoxy)-4-methylpyridin-3-yl]pyrazol-4-yl]-[5-(difluoromethoxy)-6-(1-methylsulfonylpiperidin-4-yl)-1H-indol-2-yl]methanone] |  |  |  | 30 | 45 | 16
Cc1cc(Oc2ccccc2F)ccc1-n1ncc(C(=O)c2cc3cc(F)c(NS(C)(=O)=O)cc3[nH]2)c1N [Example 4-1-002, N-[2-[5-amino-1-[4-(2-fluorophenoxy)-2-methylphenyl]pyrazole-4-carbonyl]-5-fluoro-1H-indol-6-yl]methanesulfonamide] |  |  |  | 7.6 | 21 | 0.52
Cc1cc2cc(C(=O)c3cnn(-c4cnc(Oc5ccc(F)cc5)cc4C)c3N)[nH]c2cc1N1CCCS1(=O)=O [Example 4-2-119, [5-amino-1-[6-(4-fluorophenoxy)-4-methylpyridin-3-yl]pyrazol-4-yl]-[6-(1,1-dioxo-1,2-thiazolidin-2-yl)-5-methyl-1H-indol-2-yl]methanone] |  |  |  | 23 | 70 | 7.4
Cc1cc(Oc2cc(F)cc(F)c2)ncc1-n1ncc(C(=O)c2cc3cc(F)c(NS(=O)(=O)CCCF)cc3[nH]2)c1N [Example 4-2-028, N-[2-[5-amino-1-[6-(3,5-difluorophenoxy)-4-methylpyridin-3-yl]pyrazole-4-carbonyl]-5-fluoro-1H-indol-6-yl]-3-fluoropropane-1-sulfonamide] |  |  |  | 120 | 340 | 15
Cc1cc(Oc2c(F)cccc2F)ncc1-n1ncc(C(=O)c2cc3cc(F)c(NS(=O)(=O)c4cccc(Cl)c4)cc3[nH]2)c1N [Example 5-1-559, N-[2-[5-amino-1-[6-(2,6-difluorophenoxy)-4-methylpyridin-3-yl]pyrazole-4-carbonyl]-5-fluoro-1H-indol-6-yl]-3-chlorobenzenesulfonamide] |  |  |  | 810 | 2400 | 17
Cc1cc(Oc2ccccc2F)ccc1-n1ncc(C(=O)c2cc3cc(F)c(NS(=O)(=O)NC4(C)COC4)cc3[nH]2)c1N [Example 4-5-008, [5-amino-1-[4-(2-fluorophenoxy)-2-methylphenyl]pyrazol-4-yl]-[5-fluoro-6-[(3-methyloxetan-3-yl)sulfamoylamino]-1H-indol-2-yl]methanone] |  |  |  | 8.2 | 31 | 0.55
Cc1ccccc1-c1cc2[nH]c(C(=O)c3cnn(-c4cnc(Oc5c(F)cccc5F)cc4C)c3N)cc2cc1OC1CCN(C2CCCC2)CC1 [Example 5-1-337, [5-amino-1-[6-(2,6-difluorophenoxy)-4-methylpyridin-3-yl]pyrazol-4-yl]-[5-(1-cyclopentylpiperidin-4-yl)oxy-6-(2-methylphenyl)-1H-indol-2-yl]methanone] | 18 | 120 | 2.3 |  |  | 
Cc1cc2cc(C(=O)c3cnn(-c4cnc(Oc5c(F)cccc5F)cc4C)c3N)[nH]c2cc1NS(=O)(=O)N1CCOC[C@H]1C [Example 5-1-292, (3R)-N-[2-[5-amino-1-[6-(2,6-difluorophenoxy)-4-methylpyridin-3-yl]pyrazole-4-carbonyl]-5-methyl-1H-indol-6-yl]-3-methylmorpholine-4-sulfonamide] | 88 | 630 | 19 |  |  | 
Cc1cc2cc(C(=O)c3cnn(-c4c(C)cc(Oc5c(F)cccc5F)cc4F)c3N)[nH]c2cc1NS(C)(=O)=O [Example 5-1-140, N-[2-[5-amino-1-[4-(2,6-difluorophenoxy)-2-fluoro-6-methylphenyl]pyrazole-4-carbonyl]-5-methyl-1H-indol-6-yl]methanesulfonamide] | 24 | 48 | 2.8 |  |  | 
